According to US20250018049A1, “COMPOUNDS FOR DEGRADING CYCLIN-DEPENDENT KINASE 2 VIA UBIQUITIN PROTEOSOME PATHWAY” (NIKANG THERAPEUTICS, INC., priority 2020, published 2025):

Columns and labels:
CDK2 [1] = target: T1, CDK2 (Homo sapiens, UniProt P24941); assay: NanoBRET CDK2 engagement assay; type: cell-based; design: expressed in transfected cells; conditions: OVCAR3 cells with stable CDK2-Luciferase vector, 24 hours treatment
Description: OVCAR3 cells with stable transfection of CDK2-Luciferase vector were seeded into 96-well plate at a density of 20,000 cells per well, 50 μL Opti-MEM medium supplemented with 1% FBS. Following morning, cells were treated with compounds of the disclosure, with starting concentration at 3 μM and ½ log dilution down to 0.3 nM for 24 hours at 37° C. DMSO treatment serves as control. Compound engagement was then measured using NanoBRE™ Kinase Kit from Promega (Part Number: CS1810C122, NanoBRET™ TE Kinase Kit #10, 1K) following manufacturer's instruction. For 24 hours treatment, tracer was added only for the last 2 hours. Briefly, 2.5 μL of complete 20× NanoBRET Tracer was added to the cells in suspension. Immediately prior to BRET measurements, prepare 3× Complete NanoBRET® Nano-Glo® Substrate in Opti-MEM without serum and phenol red. Without any delay, 25 μL per well of 3× Complete NanoBRET™ Nano-Glo® Substrate for a 96-well plate was added and mixed well. Signal was then read on a CLARIOstar® plate reader (measure donor emission (e.g., 450 nm) and acceptor emission (e.g., 610 nm or 630 nm) using a NanoBRET™-compatible luminometer. Target engagement was calculated with DMSO treatment as 100% signal, and IC50 was calculated by GraphPad Prism 9.

CDK2 [2] = target: T1, CDK2; assay: Phospho-Rb HTRF measurement in OVCAR3 cells (inhibition of CDK2); type: cell-based; design: High-Throughput Measurement of Cellular Endogenous CDK2; endogenous in cells; host or cells: OVCAR3; conditions: pRB(S807/811) assay, 24 h compound treatment
Description: Phosphorylation of RB protein at S780 and S807/811 were measured using HTRF phospho-RB cellular kits (Cat #64RBS780PEG and 64RBS807PEG) from Cisbio.
On Day 1, OVCAR3 or KYSE520 cells were seeded into 96-well tissue-culture treated plates at 20,000 cells/well in 200 μL and incubated overnight at 37° C. in CO2 atmosphere. On Day 2, the cells were treated with test compounds at concentrations from 0.3 to 10,000 nM using HP D300 digital dispenser. Twenty-four hours after compound treatment, cell culture media was removed by flicking the plate and tapping the plate against clean paper towel. Immediately 30 μL 1× lysis buffer was supplemented from the kit and the plate was incubated at room temperature on shaker for 30 min. After homogenization by pipetting up and down, 8 μL cell lysate from 96-well cell culture plate was transferred to 384-well small volume white detection plate. 2 μL premixed detection solution was added and the plate was covered with sealer. To prepare the detection solution, d2 conjugated-phospho-RB antibody and Eu-cryptate conjugated phosphor-RB antibody were diluted into detection buffer following manufacturer's instruction. Detection plates were incubated for 4 h at room temperature and read on ClarioStar (BMG Labtech) in TR-FRET mode (665 nM and 620 nM). The TR-FRET ratio (665 nM/620 nM) was plotted against the compound concentration and normalized to DMSO controls. Half maximal inhibition concentration (IC50) values are calculated with a four-parameter logistic fit using GraphPad Prism (version 8; La Jolla, CA).

SMILES | IC50 (CDK2 [1]) | IC50 (CDK2 [2])
O=C1CCC(N2C(=O)c3cccc(NCCOCCOCCNS(=O)(=O)N4CCC(Nc5ncc6ccc(=O)n(C7CCCC7)c6n5)CC4)c3C2=O)C(=O)N1 (centres unmarked) [Compound 9, 4-((8-cyclopentyl-7-oxo-7,8-dihydropyrido[2,3-d]-pyrimidin-2-yl)amino)-N-(2-(2-(2-((2-(2,6-dioxopiperidin-3-yl)-1,3-dioxoisoindolin-4-yl)-amino)ethoxy)ethoxy)ethyl)piperidine-1-sulfonamide] | 675 nM | 1810 nM
O=C1CCC(N2C(=O)c3cccc(CCCOCCOCCNS(=O)(=O)N4CCC(Nc5ncc6ccc(=O)n(C7CCCC7)c6n5)CC4)c3C2=O)C(=O)N1 (centres unmarked) [Compound 11, 4-((8-cyclopentyl-7-oxo-7,8-dihydropyrido[2,3-d]pyrimidin-2-yl)amino)-N-(2-(2-(3-(2-(2,6-dioxopiperidin-3-yl)-1,3-dioxoisoindolin-4-yl)-propoxy)ethoxy)ethyl)piperidine-1-sulfonamide] | 499 nM | 2060 nM
O=C1CCC(N2C(=O)c3ccc(N4CC(Oc5cccc(S(=O)(=O)N6CCC(Nc7ncc8ccc(=O)n(C9CCCC9)c8n7)CC6)c5)C4)cc3C2=O)C(=O)N1 (centres unmarked) [Compound 12, 5-(3-(3-((4-((8-cyclopentyl-7-oxo-7,8-dihydro-pyrido[2,3-d]pyrimidin-2-yl)amino)piperidin-1-yl)sulfonyl)phenoxy)azetidin-1-yl)-2-(2,6-dioxopiperidin-3-yl)isoindoline-1,3-dione] | 4780 nM | 697 nM
O=C1CCC(N2C(=O)c3cccc(NCCOCCOCCOCCNCCCS(=O)(=O)N4CCC(Nc5ncc6ccc(=O)n(C7CCCC7)c6n5)CC4)c3C2=O)C(=O)N1 (centres unmarked) [Compound 25, 4-((15-((4-((8-cyclopentyl-7-oxo-7,8-dihydro-pyrido[2,3-d]pyrimidin-2-yl)amino)piperidin-1-yl)sulfonyl)-3,6,9-trioxa-12-azapentadecyl)-amino)-2-(2,6-dioxopiperidin-3-yl)isoindoline-1,3-dione] | – | 1070 nM
O=C1CCC(N2C(=O)c3cccc(NC(=O)COCCOCCOCCOCCNS(=O)(=O)N4CCC(Nc5ncc6ccc(=O)n(C7CCCC7)c6n5)CC4)c3C2=O)C(=O)N1 (centres unmarked) [Compound 26, 14-((4-((8-cyclopentyl-7-oxo-7,8-dihydro-pyrido[2,3-d]pyrimidin-2-yl)amino)piperidine)-1-sulfonamido)-N-(2-(2,6-dioxopiperidin-3-yl)-1,3-dioxoisoindolin-4-yl)-3,6,9,12-tetraoxatetradecan-amide] | – | 6090 nM
CC1(O)CCCC1n1c(=O)ccc2cnc(NC3CCN(S(=O)(=O)c4cccc(CN5CCN(c6cc7c(cc6F)C(=O)N(C6CCC(=O)NC6=O)C7=O)CC5)c4)CC3)nc21 (centres unmarked) [Compound 44, 2-(2,6-dioxopiperidin-3-yl)-5-fluoro-6-(4-(3-((4-((8-(2-hydroxy-2-methylcyclopentyl)-7-oxo-7,8-dihydropyrido[2,3-d]pyrimidin-2-yl)amino)-piperidin-1-yl)sulfonyl)benzyl)piperazin-1-yl)-isoindoline-1,3-dione] | – | 405 nM

Results, then the compound that gave them:

IC50 (CDK2 [1]) | IC50 (CDK2 [2]) | SMILES
791 nM | 3790 nM | CN(CCCOCCCc1cccc2c1C(=O)N(C1CCC(=O)NC1=O)C2=O)S(=O)(=O)N1CCC(Nc2ncc3ccc(=O)n(C4CCCC4)c3n2)CC1 (centres unmarked) [Compound 10, 4-((8-cyclopentyl-7-oxo-7,8-dihydropyrido[2,3-d]-pyrimidin-2-yl)amino)-N-(3-(3-(2-(2,6-dioxo-piperidin-3-yl)-1,3-dioxoisoindolin-4-yl)-propoxy)propyl)-N-methylpiperidine-1-sulfonamide]
668 nM | 633 nM | Cn1c(=O)n(C2CCC(=O)NC2=O)c2cccc(C#CCOC3CCN(S(=O)(=O)N4CCC(Nc5ncc6ccc(=O)n(C7CCCC7)c6n5)CC4)CC3)c21 (centres unmarked) [Compound 14, 3-(4-(3-((1-((4-((8-cyclopentyl-7-oxo-7,8-dihydropyrido[2,3-d]pyrimidin-2-yl)amino)-piperidin-1-yl)sulfonyl)piperidin-4-yl)oxy)prop-1-yn-1-yl)-3-methyl-2-oxo-2,3-dihydro-1H-benzo[d]imidazol-1-yl)piperidine-2,6-dione]
356 nM | 2020 nM | CN(C1CCC(Nc2cccc3c2C(=O)N(C2CCC(=O)NC2=O)C3=O)CC1)S(=O)(=O)N1CCC(Nc2ncc3ccc(=O)n(C4CCCC4)c3n2)CC1 (centres unmarked) [Compound 15, 4-((8-cyclopentyl-7-oxo-7,8-dihydropyrido[2,3-d]pyrimidin-2-yl)amino)-N-(4-((2-(2,6-dioxo-piperidin-3-yl)-1,3-dioxoisoindolin-4-yl)amino)-cyclohexyl)-N-methylpiperidine-1-sulfonamide]
450 nM | 245 nM | O=C1CCC(N2C(=O)c3ccc(CN4CC(Oc5cccc(S(=O)(=O)N6CCC(Nc7ncc8ccc(=O)n(C9CCCC9)c8n7)CC6)c5)C4)cc3C2=O)C(=O)N1 (centres unmarked) [Compound 17, 5-((3-(3-((4-((8-cyclopentyl-7-oxo-7,8-dihydro-pyrido[2,3-d]pyrimidin-2-yl)amino)piperidin-1-yl)sulfonyl)phenoxy)azetidin-1-yl)methyl)-2-(2,6-dioxopiperidin-3-yl)isoindoline-1,3-dione]
188 nM | 700 nM | Cn1c(=O)n(C2CCC(=O)NC2=O)c2cccc(CCCOCCNS(=O)(=O)N3CCC(Nc4ncc5ccc(=O)n(C6CCCC6)c5n4)CC3)c21 (centres unmarked) [Compound 18, 4-((8-cyclopentyl-7-oxo-7,8-dihydropyrido[2,3-d]pyrimidin-2-yl)amino)-N-(2-(3-(1-(2,6-dioxopiperidin-3-yl)-3-methyl-2-oxo-2,3-dihydro-1H-benzo[d]imidazol-4-yl)propoxy)-ethyl)piperidine-1-sulfonamide]
253 nM | 707 nM | CN(CCCOCCCc1cccc2c1n(C)c(=O)n2C1CCC(=O)NC1=O)S(=O)(=O)N1CCC(Nc2ncc3ccc(=O)n(C4CCCC4)c3n2)CC1 (centres unmarked) [Compound 19, 4-((8-cyclopentyl-7-oxo-7,8-dihydropyrido[2,3-d]pyrimidin-2-yl)amino)-N-(3-(3-(1-(2,6-dioxo-piperidin-3-yl)-3-methyl-2-oxo-2,3-dihydro-1H-benzo[d]imidazol-4-yl)propoxy)propyl)-N-methylpiperidine-1-sulfonamide]
– | 313 nM | O=C1CCC(N2Cc3cc(N4CCC(Oc5cccc(S(=O)(=O)N6CCC(Nc7ncc8ccc(=O)n(C9CCCC9)c8n7)CC6)c5)CC4)ccc3C2=O)C(=O)N1 (centres unmarked) [Compound 33, 3-(5-(4-(3-((4-((8-cyclopentyl-7-oxo-7,8-dihydro-pyrido[2,3-d]pyrimidin-2-yl)amino)piperidin-1-yl)sulfonyl)phenoxy)piperidin-1-yl)-1-oxoiso-indolin-2-yl)piperidine-2,6-dione]
– | 100 nM | O=C1CCC(N2Cc3cc(N4CC(Oc5cccc(S(=O)(=O)N6CCC(Nc7ncc8ccc(=O)n(C9CCCC9)c8n7)CC6)c5)C4)ccc3C2=O)C(=O)N1 (centres unmarked) [Compound 74, 3-(5-(3-(3-((4-((8-cyclopentyl-7-oxo-7,8-dihydro-pyrido[2,3-d]pyrimidin-2-yl)amino)piperidin-1-yl)sulfonyl)phenoxy)azetidin-1-yl)-1-oxoisoindolin-2-yl)piperidine-2,6-dione]
